Usually IC50 stands for the concentration that gives 50% inhibition.

Assay [1] concerns MDA-MB-231 cells. The assay can be described thus: Cell proliferation assay (CellTiter-Glo), MDA-MB-231. The conditions noted are these: Homo sapiens, MDA-MB-231, 72 h, 72 h treatment, Celltiter-Glo luminescence. It is filed as cell-based. The procedure, abridged: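 MDA-MB-231 (RPMI-1640/10% FBS) and EVSA-T (MEM/10% FBS) cells, 10000 cells/well, exposed 72 h to compound at […]. Viability read by CellTiter-Glo luminescence after 15 min at room temperature. IC50 from control-normalised curve fitting.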

The test system of assay [2] is EVSA-T cells. The assay can be described thus: Cell proliferation assay (CellTiter-Glo), EVSA-T. It is filed as cell-based. To be noted: Homo sapiens, EVSA-T, 72 h, 72 h treatment, Celltiter-Glo luminescence. Here is the method:
Example 238: Cell Proliferation Assay
MDA-MB-231 and EVSA-T cells (10000 cells/well) were plated onto 96-well plates (Corning, Cat #3917) in 95 μL of medium (RPMI-1640 containing 10% FBS and MEM containing 10% FBS, respectively). Compounds with various concentrations ([…]) were added to the wells. After treatment for 72 h, 30 μL of Celltiter-Glo reagent (Promega, Cat #G7573) was added and incubated at room temperature for 15 min, then the luminescent signal was determined using a microplate reader (Biotek, SynergyH1). The inhibitor dose-response curves were analyzed using normalized IC50 regression curve fitting with control based normalization.
Background: ATP-based viability assays read luminescence as a measure of living cells.

For the compound `C[C@@H]1CN(CC(=O)N2CC(C)(C)c3c2cc(Cc2ccc(F)cc2)c2ncnn32)[C@@H](CN2Cc3c(F)cccc3C2=O)CN1` [Compound 99, 4-fluoro-2-(((2R,5R)-1-(2-(4-(4-fluorobenzyl)-8,8-dimethyl-7,8-dihydro-6H-pyrrolo[2,3-e][1,2,4]triazolo[1,5-a]pyridin-6-yl)-2-oxoethyl)-5-methylpiperazin-2-yl)methyl)isoindolin-1-one], the figures for the IC50 in assay [1] and in assay [2] were 12 nM and 5 nM, respectively.

For the compound `C[C@@H]1CN(CC(=O)N2CC(C)(C)c3c2cc(Cc2ccc(F)cc2)c2ncnn32)[C@@H](CN2Cc3cc(F)ccc3C2=O)CN1` [Compound 100, 5-fluoro-2-(((2R,5R)-1-(2-(4-(4-fluorobenzyl)-8,8-dimethyl-7,8-dihydro-6H-pyrrolo[2,3-e][1,2,4]triazolo[1,5-a]pyridin-6-yl)-2-oxoethyl)-5-methylpiperazin-2-yl)methyl)isoindolin-1-one], the IC50 in assay [1] came to 21 nM; in assay [2] it was 4 nM.

For `C[C@@H]1CN(CC(=O)N2CC(C)(C)c3c2cc(Cc2ccc(F)cc2)c2ncnn32)[C@@H](CN2Cc3ccc(F)cc3C2=O)CN1` [Compound 101, 6-fluoro-2-(((2R,5R)-1-(2-(4-(4-fluorobenzyl)-8,8-dimethyl-7,8-dihydro-6H-pyrrolo[2,3-e][1,2,4]triazolo[1,5-a]pyridin-6-yl)-2-oxoethyl)-5-methylpiperazin-2-yl)methyl)isoindolin-1-one], the IC50 came out at 23 nM in assay [1] and 8 nM in assay [2].

Regarding `C[C@@H]1CN(CC(=O)N2CC(C)(C)c3c2cc(Cc2ccc(F)cc2)c2c(C#N)cnn32)[C@@H](CN2CCOC[C@H]2C)CN1` [Compound 105, 4-(4-fluorobenzyl)-8,8-dimethyl-6-(2-((2R,5R)-5-methyl-2-(((R)-3-methylmorpholino)methyl)piperazin-1-yl)acetyl)-7,8-dihydro-6H-pyrazolo[1,5-a]pyrrolo[2,3-e]pyridine-3-carbonitrile], the IC50 in assay [1] is 100 nM; in assay [2], 9 nM.

`Cc1nc2c(Cc3ccc(F)cc3)cc3c(n2c1C)C(C)(C)CN3C(=O)CN1C[C@@H](C)NC[C@@H]1CN1CCOC[C@H]1C` [Compound 109, 1-(4-(4-fluorobenzyl)-1,2,8,8-tetramethyl-7,8-dihydro-6H-imidazo[1,2-a]pyrrolo[2,3-e]pyridin-6-yl)-2-((2R,5R)-5-methyl-2-(((R)-3-methylmorpholino)methyl)piperazin-1-yl)ethan-1-one]: the IC50 in assay [1] came to 61 nM; in assay [2] it was 9 nM.

On to `C[C@@H]1CN(CC(=O)N2CC(C)(C)c3c2cc(Cc2ccc(F)cc2)c2ncc(C#N)n32)[C@@H](CN2CCOC[C@H]2C)CN1` [Compound 111, 4-(4-fluorobenzyl)-8,8-dimethyl-6-(2-((2R,5R)-5-methyl-2-(((R)-3-methylmorpholino)methyl)piperazin-1-yl)acetyl)-7,8-dihydro-6H-imidazo[1,2-a]pyrrolo[2,3-e]pyridine-1-carbonitrile], for which the figures for the IC50 in assay [1] and in assay [2] were 42 nM and 2 nM, respectively.

Turning to `C[C@@H]1CN(CC(=O)N2CC(C)(C)c3c2cc(Cc2ccc(F)cc2)c2nc(Cl)cn32)[C@@H](CN2CCOC[C@H]2C)CN1` [Compound 113, 1-(2-chloro-4-(4-fluorobenzyl)-8,8-dimethyl-7,8-dihydro-6H-imidazo[1,2-a]pyrrolo[2,3-e]pyridin-6-yl)-2-((2R,5R)-5-methyl-2-(((R)-3-methylmorpholino)methyl)piperazin-1-yl)ethan-1-one], the IC50 turned out to be 74 nM in assay [1] and 6 nM in assay [2].

`Cc1cc(F)ccc1Cc1cc2c(n3ncnc13)C(C)(C)CN2C(=O)CN1C[C@@H](C)NC[C@@H]1CN1CCOC[C@H]1C` [Compound 115, 1-(4-(4-fluoro-2-methylbenzyl)-8,8-dimethyl-7,8-dihydro-6H-pyrrolo[2,3-e][1,2,4]triazolo[1,5-a]pyridin-6-yl)-2-((2R,5R)-5-methyl-2-(((R)-3-methylmorpholino)methyl)piperazin-1-yl)ethan-1-one]: the IC50 was 160 nM in assay [1] and 30 nM in assay [2].

Consider `C[C@@H]1CN(CC(=O)N2CC(C)(C)c3c2cc(Cc2ccc(F)cc2)c2nc(C(F)(F)F)cn32)[C@@H](CN2CCOC[C@H]2C)CN1` [Compound 116, 1-(4-(4-fluorobenzyl)-8,8-dimethyl-2-(trifluoromethyl)-7,8-dihydro-6H-imidazo[1,2-a]pyrrolo[2,3-e]pyridin-6-yl)-2-((2R,5R)-5-methyl-2-(((R)-3-methylmorpholino)methyl)piperazin-1-yl)ethan-1-one], for which the IC50 in assay [1] turned out to be 93 nM; in assay [2] it was 19 nM.

`C[C@@H]1CN(CC(=O)N2CC(C)(C)c3c2cc(Cc2ccc(F)cc2)c2ncc(Cl)n32)[C@@H](CN2CCOC[C@H]2C)CN1` [Compound 118, 1-(1-chloro-4-(4-fluorobenzyl)-8,8-dimethyl-7,8-dihydro-6H-imidazo[1,2-a]pyrrolo[2,3-e]pyridin-6-yl)-2-((2R,5R)-5-methyl-2-(((R)-3-methylmorpholino)methyl)piperazin-1-yl)ethan-1-one]: the IC50 in assay [1] turned out to be 120 nM; in assay [2], 10 nM.

In the case of `C[C@@H]1CN(CC(=O)N2CC(C)(C)c3c2cc(Cc2ccc(F)cc2)c2ncc(Br)n32)[C@@H](CN2CCOC[C@H]2C)CN1` [Compound 119, 1-(1-bromo-4-(4-fluorobenzyl)-8,8-dimethyl-7,8-dihydro-6H-imidazo[1,2-a]pyrrolo[2,3-e]pyridin-6-yl)-2-((2R,5R)-5-methyl-2-(((R)-3-methylmorpholino)methyl)piperazin-1-yl)ethan-1-one], the IC50 in assay [1] is 100 nM; in assay [2] it was 6 nM.

For the compound `C[C@@H]1CN(CC(=O)N2CC(C)(C)c3c2cc(Cc2ccc(F)cc2)c2nc(CF)cn32)[C@@H](CN2CCOC[C@H]2C)CN1` [Compound 121, 1-(4-(4-fluorobenzyl)-2-(fluoromethyl)-8,8-dimethyl-7,8-dihydro-6H-imidazo[1,2-a]pyrrolo[2,3-e]pyridin-6-yl)-2-((2R,5R)-5-methyl-2-(((R)-3-methylmorpholino)methyl)piperazin-1-yl)ethan-1-one], the IC50 in assay [1] came out at 65 nM; in assay [2], 5 nM.

Take `C[C@@H]1CN(CC(=O)N2CC(C)(C)c3c2cc(Cc2ccc(F)cc2)c2nc(C(F)F)cn32)[C@@H](CN2CCOC[C@H]2C)CN1` [Compound 122, 1-(2-(difluoromethyl)-4-(4-fluorobenzyl)-8,8-dimethyl-7,8-dihydro-6H-imidazo[1,2-a]pyrrolo[2,3-e]pyridin-6-yl)-2-((2R,5R)-5-methyl-2-(((R)-3-methylmorpholino)methyl)piperazin-1-yl)ethan-1-one]: the IC50 in assay [1] was determined as 65 nM; in assay [2], 6 nM.

For the compound `C[C@@H]1CN(CC(=O)N2CC(C)(C)c3c2cc(Cc2ccc(F)cc2Cl)c2ncnn32)[C@@H](CN2CCOC[C@H]2C)CN1` [Compound 123, 1-(4-(2-chloro-4-fluorobenzyl)-8,8-dimethyl-7,8-dihydro-6H-pyrrolo[2,3-e][1,2,4]triazolo[1,5-a]pyridin-6-yl)-2-((2R,5R)-5-methyl-2-(((R)-3-methylmorpholino)methyl)piperazin-1-yl)ethan-1-one], the IC50 in assay [1] came to 120 nM; in assay [2], 43 nM.

Consider `COc1nc2c(Cc3ccc(F)cc3)cc3c(n2n1)C(C)(C)CN3C(=O)CN1C[C@@H](C)NC[C@@H]1CN1CCOC[C@H]1C` [Compound 126, 1-(4-(4-fluorobenzyl)-2-methoxy-8,8-dimethyl-7,8-dihydro-6H-pyrrolo[2,3-e][1,2,4]triazolo[1,5-a]pyridin-6-yl)-2-((2R,5R)-5-methyl-2-(((R)-3-methylmorpholino)methyl)piperazin-1-yl)ethan-1-one], for which the IC50 was determined as 20 nM in assay [1] and 3 nM in assay [2].

Consider `C[C@@H]1CN(CC(=O)N2CC(C)(C)c3c2cc(Cc2ccc(F)cc2)c2cnnn32)[C@@H](CN2CCOC[C@H]2C)CN1` [Compound 128, 1-(4-(4-fluorobenzyl)-8,8-dimethyl-7,8-dihydro-6H-pyrrolo[2,3-e][1,2,3]triazolo[1,5-a]pyridin-6-yl)-2-((2R,5R)-5-methyl-2-(((R)-3-methylmorpholino)methyl)piperazin-1-yl)ethan-1-one], for which the values for the IC50 in assay [1] and in assay [2] were 12 nM and 2 nM, respectively.

For the compound `C[C@@H]1CN(CC(=O)N2CC(C)(C)c3c2cc(Cc2ccc(F)cc2N)c2ncnn32)[C@@H](CN2CCOC[C@H]2C)CN1` [Compound 129, 1-(4-(2-amino-4-fluorobenzyl)-8,8-dimethyl-7,8-dihydro-6H-pyrrolo[2,3-e][1,2,4]triazolo[1,5-a]pyridin-6-yl)-2-((2R,5R)-5-methyl-2-(((R)-3-methylmorpholino)methyl)piperazin-1-yl)ethan-1-one], the figures for the IC50 in assay [1] and in assay [2] were 46 nM and 11 nM, respectively.

For `Cc1nc(C#N)c2c(Cc3ccc(F)cc3)cc3c(n12)C(C)(C)CN3C(=O)CN1C[C@@H](C)NC[C@@H]1CN1CCOC[C@H]1C` [Compound 130, 4-(4-fluorobenzyl)-1,8,8-trimethyl-6-(2-((2R,5R)-5-methyl-2-(((R)-3-methylmorpholino)methyl)piperazin-1-yl)acetyl)-7,8-dihydro-6H-imidazo[1,5-a]pyrrolo[2,3-e]pyridine-3-carbonitrile], the figures for the IC50 in assay [1] and in assay [2] were 230 nM and 37 nM, respectively.
